Measurements: patent publication US20240319166A1, “Genetically-encoded volatile synthetic biomarkers for breath-based cancer detection” (The Board of Trustees of the Leland Stanford Junior …, priority 2021, published 2024)

Columns and labels:
[1] = Quantitation of limonene evolution from limonene-injected mice (closed chamber, SIFT-MS); format: in vivo
Method: Having observed robust limonene expression in transfected HeLa cells in culture, the feasibility of detecting limonene in exhaled breath from rodents was then tested. A standard curve relating limonene concentration in chamber headspace to the quantity of limonene spiked into 0.5-L chambers was generated. To determine the fraction of limonene in mice that was emitted into the headspace, mice were injected intraperitoneally with different quantities of a limonene standard solution (from 0.01 μg to 1 mg) and individual mice were placed in a closed chamber for 15 minutes, at which point headspace limonene concentrations were measured by SIFT-MS (FIG. 4A and FIG. 4B).
Using the standard curve, the mass of limonene exhaled by mice at each quantity injected was determined and the fraction exhaled was calculated. At the LOD (0.5 ppb), limonene in the chamber headspace became detectable when 2.3 ng had been spiked into the chamber, whereas limonene evolving from mice only became detectable at an injected dose of 450 ng (FIG. 4B, Supplementary Calculations shown in Example 2, infra). […]
Prior to mouse studies, a calibration curve was generated. Known limonene quantities (10 μg to 100 μg) were added to 10 mL of water in […] (Kent Scientific, Torrington, CT). […]

[2] = cited from earlier work

C=C(C)[C@H]1CC=C(C)CC1 [limonene]
fraction of injected limonene emitted into the chamber headspace ([1]; intraperitoneal injection, 0.5-L chamber, within 15 minutes): ~0.5%
injected dose at which limonene evolving from mice became detectable ([1]; intraperitoneal, at the LOD (0.5 ppb), 15 minutes): 450 ng
safe oral dose [2]: ≤ 100 mg/kg
safe oral dose for an average 70 kg adult [2]: ~7 g
